Patent US20030054980A1, “Ceruloplasmin and uses thereof in neurodegenerative related conditions” (priority 2000, published 2003)

What was measured:
[1] = system: P19 neurons; assay: Pro-aggregative effect on P19 neurons (culture morphology, surfaces not occupied by cells); conditions: for Morphological change: 24 h; for induction of neuronal aggregation (text summary of Table 1): concentrations of Table 1, copper equivalent to (His2Cu: or higher than) that in CP
Procedure: Undifferentiated P19 cells were propagated in complete medium containing alpha-modified Eagle's minimal essential medium (α-MEM; Gibco-BRL, Burlington, Ontario) supplemented with 10% heat-inactivated fetal bovine serum (Cansera International, Rexdale, Ontario), 2.5 U/mL penicillin and 2.5 μg/mL streptomycin (Sigma-Aldrich). Cells were maintained at 37° C. in a humidified atmosphere of 5% CO2 and passaged every two days on non-coated tissue culture dishes. To achieve neuronal differentiation, P19 cells were seeded in bacteriological-grade petri dishes at a density of 0.9×10^5 cells/mL, and grown as aggregates, during 4 days, in complete medium containing 0.5 μM RA (Sigma-Aldrich). At day 4, aggregates were dissociated by incubation for 3 min, at room temperature, with 0.025% trypsin (250 Nα-benzoyl-L-Arg-ethyl ester (BAEE) unit per 15×10^6 cells; Sigma-Aldrich) in phosphate buffer saline (PBS) containing 1 mM EDTA, and digestion stopped by adding an equal volume of complete α-MEM medium. The resulting cellular suspensions were passaged by pipetting and subjected to two wash-and-centrifuge cycles, and individualized cells (neurons) were transferred (1500-1800 cells/mm^2) to gelatinized tissue culture dishes or multiwell plates containing NEUROBASAL™ medium (Gibco-BRL) supplemented with B27™ supplement (Gibco-BRL) and 0.5 mM L-glutamine, but no RA. Gelatinization of culture surfaces was done by incubation with 0.1% gelatin for 0.5 h at 22° C., followed by several washes with PBS to remove unbound protein. For comparison purposes, solutions of 2% gelatin, 10 μg/mL fibronectin, 10 μg/mL laminin and 5 mg/mL CP (in this case, in a proportion of 50 μL per cm^2) were also used for coating. Differentiation to fibroblasts was done by culturing P19 cells as monolayers, for 4 days, in complete medium containing RA. Cells were trypsinized every 2 days and replated in non-coated tissue culture dishes each time. From day 4 and after, cells were cultured in complete medium without RA.
At 3, 24 or 48 h after plating, P19 neurons were incubated for 24 h in a fresh provision of supplemented Neurobasal medium not containing (control) or containing CP or another agent. Protease inhibitors were added 1 h before CP. Freshly individualized cells of the other cell types tested were let to adhere to culture surfaces, in their normal culture medium (containing serum), for times indicated: undifferentiated P19 cells and their fibroblast derivatives (both for 3 and 24 h), rat smooth muscle cells (7 days), and rat hepatocytes (3 h). Afterwards, cells were extensively rinsed with PBS and incubated for 24 h in supplemented Neurobasal medium in the absence or presence of CP. After treatment with CP or other agents, cells were examined for morphology, viability, ALAMARBLUE™ dye penetration and/or apoptosis, as indicated below.
Morphological analysis was done by inversion microscopy (NIKKON™ TMS), using phase-contrast objectives and a camera (NIKKON™ F70).

[2] = system: P19 neurons; assay: Inhibition of CP-induced neuronal aggregation; type: cell-based, mouse; conditions: for inhibition of CP-induced aggregation, inhibitors tested individually: 6-7 TIU/mL or half this concentration, 3.8 μM CP; for inhibition of CP-induced neuronal aggregation: 6-7 trypsin inhibitory U/mL each, added 1 h before 3.8 μM CP, morphology and dye penetration analysis
Procedure: Protease inhibitors were added 1 h before CP.
Day 4 P19 neurons were plated in 24- or 48-well plates in prevision of dye penetration analysis. After treatment with CP or other agents, cells were incubated for 5 h with 500 μL of a solution containing one part of ALAMARBLUE™ (Medicorp Inc., Montreal, Quebec, Canada) and nine parts of fresh supplemented Neurobasal medium. This dye is reduced to a fluorescent derivative by metabolic activity of living cells. At the end of incubation, the fluorescence of the culture medium was monitored at 590 nm, using 540 nm as the excitation wavelength.

[3] = system: resorufin-labeled casein; assay: Detection of proteolytic activity with resorufin-labeled casein; type: biochemical; conditions: culture media conditioned by cells, in all cases
Procedure: Evaluation of proteolytic activity in CP preparations or in cell culture media was done with resorufin-labeled casein (universal protease chromogenic substrate; Roche Diagnostics). Aliquots (100 μL) of CP solutions (about 13 mg/mL) or of culture media of cells after 24 h treatment with and without CP were incubated at 37° C. for various times (up to 22 h), with 50 μL of resorufin-labeled casein solution provided by the manufacturer and 50 μL of 0.2 M Tris-HCl, pH 7.8 containing 0.02 M CaCl2. The reaction was stopped by adding 480 μL of 5% trichloroacetic acid. After 10 min of incubation at 37° C. and 5 min of centrifugation, 400 μL of the resulting supernatants were mixed with 600 μL of 0.5 M Tris-HCl, pH 8.8, and absorbance read at 574 nm. Alternately, resorufin-labeled casein was added to culture media (50 μL substrate for each 150 μL supplemented NEUROBASAL™ medium) while cells were being treated with CP. Culture media were removed at various times (up to 24 h) and subjected to acid precipitation and spectrophotometric measurement as indicated above. Trypsin (10100 U BAEE/mg; Sigma-Aldrich) was used as a standard.

[4] = 1.14 to 49.2 μM, day 4 P19 neurons on gelatin

Molecule: NC(Cc1c[nH]cn1)C(=O)[O-].NC(Cc1c[nH]cn1)C(=O)[O-].[Cu+2] (stereo not shown) [(His)2Cu complex]
- Morphological change ([1]; 23 to 390 μM): no aggregation
- induction of neuronal aggregation (text summary of Table 1) [1]: did not induce neuronal aggregation

Molecule: [Cl][Cu][Cl] [CuCI2, CuCl2]
- Morphological change ([1]; 246 μM): cell death
- Morphological change [1, 4]: no aggregation
- induction of neuronal aggregation (text summary of Table 1) [1]: did not induce neuronal aggregation

Molecule: O=S(=O)([O-])[O-].[Cu+2] [CuSO4]
- Morphological change ([1]; 246 μM): cell death
- Morphological change [1, 4]: no aggregation
- induction of neuronal aggregation (text summary of Table 1) [1]: did not induce neuronal aggregation

Molecule: Bovine serum albumin: serum protein that can transport copper ions
- inhibition of CP-induced neuroaggregation ([2]; albumin at 3.6 μM): did not inhibit
- Morphological change ([1]; 0.3 to 7.5 μM): no aggregation
- induction of neuronal aggregation (text summary of Table 1) [1]: failed to induce-aggregation

Molecule: aprotinin
- hydrolysis of resorufin-labeled casein [3]: completely abolished hydrolysis
- inhibition of CP-induced aggregation, inhibitors tested individually [2]: Complete inhibition of aggregation
- inhibition of CP-induced neuronal aggregation [2]: completely hindered

B1: SBTI: soybean trypsin inhibitor, serine protease inhibitor (protein, UniProt P01070 25-205, looked up)
Trypsin inhibitor A: DFVLDNEGNPLENGGTYYILSDITAFGGIRAAPTGNERCPLTVVQSRNELDKGIGTIISSPYRIRFIAEGHPLSLKFDSFAVIMLCVGIPTEWSVVEDLPEGPAVKIGENKDAMDGWFRLERVSDDEFNNYKLVFCPQQAEDDKCGDIGISIDHDDGTRRLVVSKNKPLVVQFQKLDKESL
- hydrolysis of resorufin-labeled casein [3]: completely abolished hydrolysis
- inhibition of CP-induced aggregation, inhibitors tested individually [2]: Complete inhibition of aggregation
- inhibition of CP-induced neuronal aggregation [2]: completely hindered

B2: Bovine serum amineoxidase: 180 kDa circulating non-blue copper protein (protein, UniProt Q29437 17-762, looked up)
Primary amine oxidase, liver …: REEGGVGSEEGVGKQCHPSLPPRCPSRSPSDQPWTHPDQSQLFADLSREELTTVMSFLTQQLGPDLVDAAQARPSDNCVFSVELQLPPKAAALAHLDRGSPPPAREALAIVFFGGQPQPNVTELVVGPLPQPSYMRDVTVERHGGPLPYYRRPVLLREYLDIDQMIFNRELPQAAGVLHHCCSYKQGGQKLLTMNSAPRGVQSGDRSTWFGIYYNITKGGPYLHPVGLELLVDHKALDPADWTVQKVFFQGRYYENLAQLEEQFEAGQVNVVVIPDDGTGGFWSLKSQVPPGPTPPLQFHPQGPRFSVQGNRVASSLWTFSFGLGAFSGPRVFDVRFQGERLAYEISLQEAGAVYGGNTPAAMLTRYMDSGFGMGYFATPLIRGVDCPYLATYMDWHFVVESQTPKTLHDAFCVFEQNKGLPLRRHHSDFLSHYFGGVAQTVLVFRSVSTMLNYDYVWDMVFYPNGAIEVKLHATGYISSAFLFGAARRYGNQVGEHTLGPVHTHSAHYKVDLDVGGLENWVWAEDMAFVPTAIPWSPEHQIQRLQVTRKQLETEEQAAFPLGGASPRYLYLASKQSNKWGHPRGYRIQTVSFAGGPMPQNSPMERAFSWGRYQLAITQRKETEPSSSSVFNQNDPWTPTVDFSDFINNETIAGKDLVAWVTAGFLHIPHAEDIPNTVTVGNGVGFFLRPYNFFDQEPSMDSADSIYFREGQDAGSCEINPLACLPQAATCAPDLPVFSHGGYPEY
- Morphological change ([1]; 0.28 to 0.56 μM): no aggregation
- induction of neuronal aggregation (text summary of Table 1) [1]: did not induce aggregation
